According to patent US10590276B2, “Aqueous suspension of inorganic particulate material” (ImerTech SAS, priority 2013, dated 2020):
Marks after values point to notes of the source that are not given here.

Legend:
[1] = pH of calcium carbonate slurry after sequential 50 mg/kg additions (Example 2); format: physicochemical; details: for δ pH: change per 50 mg/kg aliquot
Text: The pH of the aqueous suspension may be measured using any conventional pH meter. For example, the pH of the aqueous suspension may be measured using the Digital pH meter “Mettler Toledo FE20”, which has been calibrated in accordance with the manufacturer's instructions, using buffer solutions with nominal values of 4, 7 and 9. This may be carried out using either a manual or automatic method, depending on the type of instrument being used.
The pH of the aqueous suspension may be measured by: • mixing a sample of the aqueous suspension to ensure homogeneity, by using either the bench stirrer or the rotating rollers, or by shaking the sample container and contents vigorously; • measuring the temperature of the sample and adjusting the temperature to 22° C.; • removing the pH electrode from its deionised water storage solution and immersing it carefully into the test slurry; • waiting until a stable pH reading is obtained; • recording the pH value of the undisturbed slurry. Viscosity
50 mg/kg aliquots of either AMP or DMEA were sequentially added to 250 g calcium carbonate slurry samples having 78 wt % solids and 60% of particles less than 2 μm in size (measured using a micrometrics sedigraph). In this context, 50 mg/kg means that 50 mg of AMP or DMEA was added per kg of dry inorganic particulate material in the aqueous suspension. The pH of the samples was measured after stirring immediately after each 50 mg/kg addition.

[2] = test system: microbes in contaminated calcium carbonate slurry; experiment: Total viable count of contaminated calcium carbonate slurry (Examples 3-5); format: cell-based, bacteria; details: for level of microbes compared with samples comprising no DMEA: 400, 500 and 600 ppm DMEA alone
Protocol: The microbe level, for example the total viable count, of the aqueous suspension may be measured using growth medium such as Petrifilm or dipslides. The material under test (for example the aqueous suspension of inorganic particulate material) is diluted with a buffer solution and a measured amount of the dilution is placed on a growth medium (for example, Petrifilm). This is incubated for 48 hours, after which time the number of colonies of bacteria is counted. Each colony has developed from one single bacterium or colony forming unit (cfu). Therefore, the number of colonies, multiplied by the dilution factor, is equivalent to the number of original colony forming units per gram or millilitre of slurry.
For example, the total viable count of an aqueous suspension may be measured by: • mixing a sample of aqueous suspension of inorganic particulate material thoroughly by shaking its container vigorously; • measuring the required weight or volume of the sample. For example, if the results are to be recorded as colony forming units per g (cfu/g), a container containing the buffer solution is placed on the balance and the balance is set to zero. Approximately 1 g of slurry is weighed into the container and its weight is recorded to within 0.1 g. The contents of the container are mixed by shaking it vigorously. If the results are to be recorded as colony forming units per ml (cfu/ml), 1 ml of slurry may be added to a container containing the buffer solution. The contents of the container are mixed by shaking it vigorously; • distributing the diluted sample evenly on the growth medium. The plate may be left undisturbed for at least one minute to allow the gel to solidify; • incubating the contents of the growth medium (for example Petrifilm plates) for 48 hours±2 hours at 30° C.±2° C.; • counting the number of colonies on the growth medium (for example Petrifilm); • calculating the total viable count of the sample by multiplying the number of colonies on the growth medium (for example Petrifilm) by the dilution factor and dividing this by the weight or volume of the sample which was plated on the growth medium. For example:
Samples of a contaminated calcium carbonate slurry having 78 wt % solids and 60% of particles less than 2 μm in size (measured using a micrometrics sedigraph) comprising various amounts of the biocide glutaraldehyde, and DMEA were prepared. The total viable count (cfu/ml) of each sample was measured after 0, 1 and 7 days by the method described above in the detailed description.
Samples of a contaminated calcium carbonate slurry having 78 wt % solids and 60% of particles less than 2 μm in size (measured using a micrometrics sedigraph) comprising various amounts of DMEA and the biocides benzisothiazolinone (BIT) and methylisothiazolinone (MIT) were prepared. The total viable count (cfu/ml) of each sample was measured after 0, 1 and 7 days by the method described above in the detailed description.
Samples of a contaminated calcium carbonate slurry having 78 wt % solids and 60% of particles less than 2 μm in size (measured using a micrometrics sedigraph) comprising various amounts of DMEA were prepared. The total viable count (cfu/ml) of each sample was measured after 0, 1 and 7 days by the method described above in the detailed description.

SMILES: CN(C)CCO [DMEA, Dimethylethanolamine]
- δ pH ([1]; total 50 mg/kg added): 0.25
- pH of sample ([1]; total 50 mg/kg of chemical added): 9.19
- δ pH ([1]; total 100 mg/kg added): 0.17
- pH of sample ([1]; total 100 mg/kg of chemical added): 9.36
- δ pH ([1]; total 150 mg/kg added): 0.13
- pH of sample ([1]; total 150 mg/kg of chemical added): 9.49
- δ pH ([1]; total 200 mg/kg added): 0.11
- pH of sample ([1]; total 200 mg/kg of chemical added): 9.60
- δ pH ([1]; total 250 mg/kg added): 0.07
- pH of sample ([1]; total 250 mg/kg of chemical added): 9.67
- δ pH ([1]; total 300 mg/kg added): 0.07
- pH of sample ([1]; total 300 mg/kg of chemical added): 9.74
- δ pH ([1]; total 350 mg/kg added): 0.06
- pH of sample ([1]; total 350 mg/kg of chemical added): 9.80
- δ pH ([1]; total 400 mg/kg added): 0.05
- pH of sample ([1]; total 400 mg/kg of chemical added): 9.85
- δ pH ([1]; total 450 mg/kg added): 0.05
- pH of sample ([1]; total 450 mg/kg of chemical added): 9.90
- δ pH ([1]; total 500 mg/kg added): 0.05
- pH of sample ([1]; total 500 mg/kg of chemical added): 9.95
- δ pH ([1]; total 550 mg/kg added): 0.04
- pH of sample ([1]; total 550 mg/kg of chemical added): 9.99
- δ pH ([1]; total 600 mg/kg added): 0.02
- pH of sample ([1]; total 600 mg/kg of chemical added): 10.01
- level of microbes compared with samples comprising no DMEA ([2]; after 0 days): slightly reduced the level of microbes
- level of microbes compared with samples comprising no DMEA ([2]; after 1 day and 7 days): further reduced the level of microbes
- Total Viable Count (cfu/ml) of sample as 10^x, x ([2]; 400 ppm DMEA in sample, 0 days after preparation): 5 cfu/ml as 10^x
- Total Viable Count (cfu/ml) of sample as 10^x, x ([2]; 400 ppm DMEA in sample, 1 day after preparation): 4 cfu/ml as 10^x
- Total Viable Count (cfu/ml) of sample as 10^x, x ([2]; 400 ppm DMEA in sample, 7 days after preparation): 0.1 cfu/ml as 10^x
- Total Viable Count (cfu/ml) of sample as 10^x, x ([2]; 500 ppm DMEA in sample, 0 days after preparation): 5 cfu/ml as 10^x
- Total Viable Count (cfu/ml) of sample as 10^x, x ([2]; 500 ppm DMEA in sample, 1 day after preparation): 4 cfu/ml as 10^x
- Total Viable Count (cfu/ml) of sample as 10^x, x ([2]; 500 ppm DMEA in sample, 7 days after preparation): 0.1 cfu/ml as 10^x
- Total Viable Count (cfu/ml) of sample as 10^x, x ([2]; 600 ppm DMEA in sample, 0 days after preparation): 5 cfu/ml as 10^x
- Total Viable Count (cfu/ml) of sample as 10^x, x ([2]; 600 ppm DMEA in sample, 1 day after preparation): 4 cfu/ml as 10^x
- Total Viable Count (cfu/ml) of sample as 10^x, x ([2]; 600 ppm DMEA in sample, 7 days after preparation): 0.1 cfu/ml as 10^x
- reducing total viable count compared with glutaraldehyde alone ([2]; DMEA in combination with 50, 100 or 400 ppm glutaraldehyde, after 1 and 7 days): at least as effective
- total viable count compared with glutaraldehyde alone ([2]; DMEA in combination with 50 ppm glutaraldehyde, after 0 days): lower total viable count
- total viable count compared with BIT/MIT but no DMEA ([2]; DMEA in combination with 81, 162 or 650 ppm BIT/MIT, after 1 day and 7 days): lower total viable count
